Consider eleven molecules from patent US10538555B2, “Macrocyclic inhibitors of the PD-1/PD-L1 and CD80(B7-1)/PD-L1 protein/protein interactions” (BRISTOL-MYERS SQUIBB COMPANY, priority 2014, dated 2020).

Read-outs that look alike come from different tables or passages of the source. Where a SMILES comes first, the peptide text is derived from it. Bridges are numbered along the chain shown (N, C = ends). [ ]: non-standard residue; d: D form. ξ: configuration not given here. Trp(1-CH2COOH) = N[C@@H](Cc1cn(CC(=O)O)c2ccccc12)C(=O)O; Phe(3,4,5-F3) = N[C@@H](Cc1cc(F)c(F)c(F)c1)C(=O)O; Phe(4-F) = N[C@@H](Cc1ccc(F)cc1)C(=O)O; d(cisHyp) = O=C(O)[C@H]1C[C@@H](O)CN1; NMeIle(3ξ) = CCC(C)[C@H](NC)C(=O)O; Hyp = O=C(O)[C@@H]1C[C@@H](O)CN1; NMeF = CN[C@@H](Cc1ccccc1)C(=O)O; NMeE = CN[C@@H](CCC(=O)O)C(=O)O; NMeNle = CCCC[C@H](NC)C(=O)O; NMeV = CN[C@H](C(=O)O)C(C)C; Pip = O=C(O)[C@@H]1CCCCN1; dPip = O=C(O)[C@H]1CCCCN1; hSer = N[C@@H](CCO)C(=O)O; NMeA = CN[C@@H](C)C(=O)O; dThz = O=C(O)[C@H]1CSCN1; Dab = NCC[C@H](N)C(=O)O; Dap = NC[C@H](N)C(=O)O; ξC = NC(CS)C(=O)O; Sar = CNCC(=O)O

The experiment has as its target T1, Human PD-L1/PD-1 (Homo sapiens, UniProt Q9NZQ7).
T1 construct: TVMV protease cleavage site (C); made in house; host or cells: HEK293T cells
Kind of experiment: HTRF Human PD-L1/PD-1 binding assay (PD-1-Ig/PD-L1-His). The conditions noted are these: PD-L1-His 10 nM, PD-1-Ig 20 nM. Summed up:
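Truncated Fc-fused human PD-1 (aa 25-167) at 20 nM and His-tagged PD-L1 (aa 18-239) at 10 nM final are used, with peptides preincubated 15 min with PD-L1. Detection uses europium-cryptate anti-Ig and APC anti-His antibodies; 665/620 nm ratio.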
Background: TR-FRET usually uses a lanthanide donor and a delayed reading to cut background.

Where [1] appears, read: class symbol, read-out: HTRF Human PD-L1/PD-1 Binding Assay IC50 Range.
The mark [2] stands for this setting: read-out: HTRF Human PD-L1/PD-1 Binding Assay IC50.

T1 sequence (Q9NZQ7 with tags, fused parts or gaps): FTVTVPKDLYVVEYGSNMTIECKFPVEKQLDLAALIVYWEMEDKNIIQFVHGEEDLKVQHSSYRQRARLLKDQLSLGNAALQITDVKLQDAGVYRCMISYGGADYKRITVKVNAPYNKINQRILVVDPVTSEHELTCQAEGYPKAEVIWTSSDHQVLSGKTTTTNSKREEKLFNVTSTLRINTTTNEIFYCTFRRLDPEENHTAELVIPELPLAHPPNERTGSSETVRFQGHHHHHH

As to `CCCC[C@H]1C(=O)N(C)[C@@H](CCCC)C(=O)N[C@@H](CCCNC(=N)N)C(=O)NC(C(=O)NCC(N)=O)CSCC(=O)N[C@@H](Cc2ccc(O)cc2)C(=O)N(C)[C@@H](C)C(=O)N[C@@H](CC(N)=O)C(=O)N2CCC[C@H]2C(=O)N[C@@H](CO)C(=O)N[C@@H](CCO)C(=O)N2CCC[C@H]2C(=O)N[C@@H](Cc2c[nH]c3ccccc23)C(=O)N[C@@H](CO)C(=O)N[C@@H](Cc2c[nH]c3ccccc23)C(=O)N1C` (some centres unmarked) [Example 10036] ({CH2CO}-Y[NMeA]NPS[hSer]PWSW[NMeNle][NMeNle]R[ξC]G-NH2; thioether N-14), the IC50 under setting [1] was 1 to 9.9 nM. With `CCCC[C@H]1C(=O)N(C)[C@@H](CCCC)C(=O)N[C@@H](CN)C(=O)N[C@H](C(=O)NCC(N)=O)CSCC(=O)N[C@@H](Cc2ccc(O)cc2)C(=O)N(C)[C@@H](C)C(=O)N[C@@H](CC(N)=O)C(=O)N2CCC[C@H]2C(=O)N[C@@H](Cc2c[nH]cn2)C(=O)N[C@@H](CCC(N)=O)C(=O)N2C[C@H](O)C[C@H]2C(=O)N[C@@H](Cc2c[nH]c3ccccc23)C(=O)N[C@@H](CCN)C(=O)N[C@@H](Cc2cn(CC(=O)O)c3ccccc23)C(=O)N1C` [Example 5222] ({CH2CO}-Y[NMeA]NPHQ[Hyp]W[Dab][Trp(1-CH2COOH)][NMeNle][NMeNle][Dap]CG-NH2; thioether N-14), the IC50 under setting [2] was determined as 1000 nM. For `CCCC[C@H]1C(=O)N(C)CC(=O)N[C@@H](CO)C(=O)N[C@@H](C)C(=O)N(C)[C@@H](Cc2ccccc2)C(=O)N[C@@H](Cc2ccc(O)cc2)C(=O)N2CCCC[C@@H]2C(=O)N[C@@H](Cc2c[nH]c3ccccc23)C(=O)N[C@@H](Cc2ccc(O)cc2)C(=O)N[C@@H](CC(C)C)C(=O)N[C@H](C(=O)NCC(N)=O)CSCC(=O)N[C@@H](Cc2ccccc2)C(=O)N(C)[C@@H](Cc2ccccc2)C(=O)N1C` [Example 10057] ({CH2CO}-F[NMeF][NMeNle][Sar]SA[NMeF]Y[dPip]WYLCG-NH2; thioether N-13), the IC50 under setting [2] was 215 nM.

Consider `CCCC[C@H]1C(=O)N2C[C@H](O)C[C@@H]2C(=O)N[C@@H](CC(=O)O)C(=O)N[C@@H](C(C)C)C(=O)N(C)[C@@H](Cc2ccccc2)C(=O)N[C@@H](Cc2ccc(O)cc2)C(=O)N2C[C@H](O)C[C@@H]2C(=O)N[C@@H](Cc2c[nH]c3ccccc23)C(=O)N[C@@H](Cc2ccc(O)cc2)C(=O)N[C@@H](CC(N)=O)C(=O)N[C@H](C(=O)NCC(N)=O)CSCC(=O)N[C@@H](Cc2cc(F)c(F)c(F)c2)C(=O)N(C)[C@@H](Cc2ccccc2)C(=O)N1C` [Example 9329] ({CH2CO}-[Phe(3,4,5-F3)][NMeF][NMeNle][d(cisHyp)]DV[NMeF]Y[d(cisHyp)]WYNCG-NH2; thioether N-13), for which the IC50 under setting [1] lay within 1 to 9.9 nM. Take `CCCC[C@H]1C(=O)N2CCC[C@@H]2C(=O)N[C@@H](CC(=O)O)C(=O)N[C@@H](C(C)C)C(=O)N(C)[C@@H](C(C)C)C(=O)N[C@@H](CCC(N)=O)C(=O)N2CCCC[C@@H]2C(=O)N[C@@H](Cc2c[nH]c3ccccc23)C(=O)N[C@@H](Cc2ccc(O)cc2)C(=O)N[C@@H](CC(C)C)C(=O)N[C@H](C(=O)NCC(N)=O)CSCC(=O)N[C@@H](Cc2ccc(F)cc2)C(=O)N(C)[C@@H](Cc2ccccc2)C(=O)N1C` [Example 9246] ({CH2CO}-[Phe(4-F)][NMeF][NMeNle][dP]DV[NMeV]Q[dPip]WYLCG-NH2; thioether N-13): the IC50 under setting [1] is 1000 to 10000 nM. Still for that read-out and setting: with `CCCC[C@H]1C(=O)N(C)[C@@H](CCCC)C(=O)N[C@@H](CN)C(=O)N[C@H](C(=O)NCC(N)=O)CSCC(=O)N[C@@H](Cc2ccc(O)cc2)C(=O)N2CCCC[C@H]2C(=O)N[C@@H](CC(N)=O)C(=O)N2CCC[C@H]2C(=O)N[C@@H](CN)C(=O)N[C@@H](CCC(=O)O)C(=O)N2C[C@H](O)C[C@H]2C(=O)N[C@@H](Cc2c[nH]c3ccccc23)C(=O)N[C@@H](CO)C(=O)N[C@@H](Cc2cn(CC(=O)O)c3ccccc23)C(=O)N1C` [Example 1300] ({CH2CO}-Y[Pip]NP[Dap]E[Hyp]WS[Trp(1-CH2COOH)][NMeNle][NMeNle][Dap]CG-NH2; thioether N-14) the figure was 1 to 9.9 nM. On the same count and under the same terms, next, `CCCC[C@H]1C(=O)N2CSC[C@@H]2C(=O)N[C@@H](CC(N)=O)C(=O)N[C@@H](C(C)C)C(=O)N(C)[C@@H](Cc2ccccc2)C(=O)N[C@@H](Cc2ccc(O)cc2)C(=O)N2CCC[C@@H]2C(=O)N[C@@H](Cc2c[nH]c3ccccc23)C(=O)N[C@@H](Cc2ccc(O)cc2)C(=O)N[C@@H](CC(C)C)C(=O)N[C@H](C(=O)NCC(N)=O)CSCC(=O)N[C@@H](Cc2ccccc2)C(=O)N(C)[C@@H](Cc2ccccc2)C(=O)N1C` [Example 10073] ({CH2CO}-F[NMeF][NMeNle][dThz]NV[NMeF]Y[dP]WYLCG-NH2; thioether N-13): 10 to 99.9 nM; `CCCC[C@H]1C(=O)N2CCC[C@@H]2C(=O)N[C@@H](CC(=O)O)C(=O)N[C@@H](C(C)C)C(=O)N(C)[C@@H](C(C)CC)C(=O)N[C@@H](CCC(N)=O)C(=O)N2CCCC[C@@H]2C(=O)N[C@@H](Cc2c[nH]c3ccccc23)C(=O)N[C@@H](Cc2ccc(O)cc2)C(=O)N[C@@H](CC(C)C)C(=O)N[C@H](C(=O)NCC(N)=O)CSCC(=O)N[C@@H](Cc2ccc(F)cc2)C(=O)N(C)[C@@H](Cc2ccccc2)C(=O)N1C` (some centres unmarked) [Example 9261] ({CH2CO}-[Phe(4-F)][NMeF][NMeNle][dP]DV[NMeIle(3ξ)]Q[dPip]WYLCG-NH2; thioether N-13): 1000 to 10000 nM. As for `CCCC[C@H]1C(=O)N2C[C@H](O)C[C@@H]2C(=O)N[C@@H](CC(=O)O)C(=O)N[C@@H](C(C)C)C(=O)N(C)[C@@H](Cc2ccccc2)C(=O)N[C@@H](Cc2ccc(O)cc2)C(=O)N2CCC[C@@H]2C(=O)N[C@@H](Cc2c[nH]c3ccccc23)C(=O)N[C@@H](Cc2ccc(O)cc2)C(=O)N[C@@H](CCOC)C(=O)N[C@H](C(=O)NCC(N)=O)CSCC(=O)N[C@@H](Cc2cc(F)c(F)c(F)c2)C(=O)N(C)[C@@H](Cc2ccccc2)C(=O)N1C` [Example 10186] ({CH2CO}-[Phe(3,4,5-F3)][NMeF][NMeNle][d(cisHyp)]DV[NMeF]Y[dP]WY[hSer](Me)CG-NH2; thioether N-13), the IC50 under setting [1] lay in the range of 10 to 99.9 nM. Same read-out and setting: next, `CCCC[C@H]1C(=O)N(C)[C@@H](CCC(=O)O)C(=O)N[C@@H](CN)C(=O)N[C@H](C(=O)NCC(N)=O)CSCC(=O)N[C@@H](Cc2ccc(O)cc2)C(=O)N(C)[C@@H](C)C(=O)N[C@@H](CC(N)=O)C(=O)N2CCC[C@H]2C(=O)N[C@@H](Cc2c[nH]cn2)C(=O)N[C@@H](CCC(=O)O)C(=O)N2C[C@H](O)C[C@H]2C(=O)N[C@@H](Cc2c[nH]c3ccccc23)C(=O)N[C@@H](CCN)C(=O)N[C@@H](Cc2c[nH]c3ccccc23)C(=O)N1C` [Example 5249] ({CH2CO}-Y[NMeA]NPHE[Hyp]W[Dab]W[NMeNle][NMeE][Dap]CG-NH2; thioether N-14): 10 to 99.9 nM. Same read-out and setting: with `CCCC[C@H]1C(=O)N(C)[C@@H](CCCC)C(=O)N[C@@H](CC(C)C)C(=O)N[C@H](C(=O)NCC(N)=O)CSCC(=O)N[C@@H](Cc2ccc(O)cc2)C(=O)N(C)[C@@H](C)C(=O)N[C@@H](CC(N)=O)C(=O)N2CCC[C@H]2C(=O)N[C@@H](Cc2cnc[nH]2)C(=O)N[C@@H](CCCCN)C(=O)N2C[C@H](O)C[C@H]2C(=O)N[C@@H](Cc2c[nH]c3ccccc23)C(=O)N[C@@H](CCCCN)C(=O)N[C@@H](Cc2cn(CC(=O)O)c3ccccc23)C(=O)N1C` [Example 6204] ({CH2CO}-Y[NMeA]NPHK[Hyp]WK[Trp(1-CH2COOH)][NMeNle][NMeNle]LCG-NH2; thioether N-14) the figure was 1 to 9.9 nM.
